Test results as given in patent US8772250B2, “Compositions and methods for treating ischemia and ischemia-reperfusion injury” (Ischemix, LLC, priority 2010, dated 2014).
Read-outs that look alike come from different tables or passages of the source.

Key:
[1] = Pharmacokinetic evaluation in rats; assay type: in vivo; conditions: both sexes, rat
Protocol: To evaluate systemic exposure to RLip-EA-OH, groups of rats were given single intravenous infusion doses of vehicle (2/sex) or RLip-EA-OH at the same dose levels of 30, 100, or 200 mg/kg (6/sex/group). For the vehicle-treated group, blood samples were collected from all rats at pre-dose and at 30 minutes (+2 minutes) post-dose only. For RLip-EA-OH-treated groups, blood samples were collected from three rats/sex/group at 10 minutes, 30 minutes, 45 minutes and 1, 2, 3, and 4 hours (±2 minutes) after dosing.
Administration was by IV infusion into a surgically-placed catheter in the femoral vein using a syringe pump at a rate of injection no greater than 0.2 mL/min. The dose volume for each animal was based on the most recent body weight measurement and doses were rounded to the nearest 0.1 mL. […]
Samples were placed in tubes containing K3EDTA and stored on ice until centrifuged, under refrigeration, for at least ten minutes at 3000 rpm. After centrifugation, plasma was removed and stored frozen at or below minus 70° C. until shipped to BASi in West Lafayette, Ind. for analysis.
Plasma RLip-EA-OH concentrations were measured at BASi in West Lafayette, Ind., using a validated LC/MS/MS method with positive turbo ion spray, in the multiple reaction-monitoring mode. The quantifiable range for the assay was 0.05 to 50 μg/mL and QC samples were included at 0.15, 10 and 37.5 μg/mL. Toxicokinetic analysis was performed using WinNonlin version 5.1 by calculation of standard parameters.

CHO M1-WT3 cells = assay: Cytosolic calcium overload assay, carbachol stimulated; assay type: cell-based, Chinese hamster; conditions: 200 nM carbachol, variant concentrations
Text: Cytosolic calcium increases in the CHO M1-WT3 cells when stimulated with carbachol ([Molecular Devices, FlexStation Application Note 2, Comparison of FLIPR® and FLEXstation™ for Calcium Mobilization Assays]) and may be detected with a fluorescent dye that binds calcium. An increase in fluorescence following carbachol stimulation is interpreted as an increase in cytosolic calcium. Chinese hamster ovary (CHO) cells were allowed to adhere to the bottom of a 96-well culture plate. The fluorescent dye and a test sample were placed on the plate and allowed to be taken up by the cells. The fluorescence level was measured every two seconds using a plate reader (Flexstation II, Molecular Devices, Sunnyvale Calif.). The cells were stimulated with carbachol and fluorescent data reported as the peak increase in fluorescence above baseline following carbachol stimulation. Data were normalized to the peak carbachol response in the control sample.
CHO cells from the cell line CHO-M1-WT3 were grown in Hams F12 medium supplemented with 10% FBS and 5 μg/mL G418 to maintain expression of the M1 muscarinic receptor. Cells were seeded the night before the experiment at a concentration of 30,000 cells/well in a volume of 100 μL per well of black walled, clear bottomed, 96-well microplates (“assay plates”). Cells were incubated at 37° C. and 5% CO2 overnight. […] The cells were placed into the FlexStation system to monitor fluorescence before and after the addition of 50 μL of 1 μM carbachol for a final concentration of 200 nM. Fluorescence was measured for 17 seconds prior to carbachol addition and 43 seconds following carbachol addition. The Fluo-4 dye was excited at a wavelength of 485 nm and emission measured at 525 nm. The Calcium-3 dye was excited at a wavelength of 494 nm and emission measured at 525 nm. The calcium response was reported as the peak fluorescence minus the baseline fluorescence calculated as the average of the fluorescence prior to carbachol addition.

myocardial I/R injury = assay: Incidence of acute cardiac dysfunction and mortality in rat model of myocardial I/R injury; assay type: in vivo
Protocol: The incidence of acute cardiac dysfunction associated with arrhythmia and cardiac arrest requiring intervention and the incidence of mortality due to these co-morbidities was examined in the rat model of myocardial I/R injury described herein for different dosages and dosage regimens for administering RLip-EA-OH. In vivo experiments were performed as described in Example 8 using dosage intervals described in Example 10. Treatments (i.e., vehicle, RLip-EA-OH) were administered as a left intra-ventricular injection, IV bolus, IV infusion, or orally. Specifically, the incidence of non-self-resolving cardiac dysfunction (i.e., extended fibrillation arrhythmia, sudden cardiac arrest) during ischemia and requiring intervention (direct mechanical cardiac resuscitation), and mortality associated with cardiac dysfunction were observed.

IGF1R = IGF1R (Homo sapiens, UniProt P08069); assay: IGF1R tyrosine kinase activation assay (mobility shift); assay type: biochemical
Text: IGF1R and Src tyrosine kinases have endogenous levels of activity in the presence of ATP and substrate. This activity was readily measured using a mobility shift assay using a Caliper LabChip® 3000 and a 12-sipper LabChip® to detect both phosphorylated and unphosphorylated substrate (Caliper Life Sciences, Discovery Alliances and Services Division). Enzyme, substrate and ATP concentrations were optimized for each assay. For the IGF1R assay, the final concentrations of the enzyme, peptide and ATP were 20 nM, 1.5 μM, and 1220 μM, respectively. For the Src assay, the final concentrations of the enzyme, peptide and ATP were 2.5 nM, 1.5 μM, and 17 μM, respectively.
RLip-EA-OH was evaluated at multiple concentrations for an effect on activation of IGF1 receptor kinase (IGF1R) and Src. The compounds tested activated IGF1R and Src with different selectivities.

Akt = assay: Immunohistochemistry assay for phosphorylated Akt in H9c2 cells; assay type: cell-based, rat; conditions: 50 μM, 3 hours, vs vehicle
Protocol: The ability of RLip-EA-OH to increase phosphorylated Akt was assayed in H9c2 cells by immunocytochemistry followed by visualization using microscopy. H9c2 cells are a cell line derived from rat cardiac myocytes and can be manipulated to increase or decrease the level of phosphoryated Akt. Cells were inoculated onto culture plates and allowed to adhere to the bottom, treated, fixed, and permeabilized. Following permeabilization, cells were treated initially with specific phospho-Akt antibodies followed by fluorescent secondary antibodies to quantify the amount of bound primary antibody.
H9c2 cells were plated in 12 well cell culture treated plates at 70% confluence. Cells were incubated overnight to allow cell attachment. The media was changed to low serum (0.5%, fetal bovine serum [FBS]) and cells incubated for another 48 hours. Cells were treated for 3 hours with either vehicle, RLip-EA-OH (50 μM), or co-treatment with LY294002 (25 μM), fixed with 3.7% formaldehyde in phosphate buffered saline and permeabilized with 0.5% Triton X-100 in phosphate buffered saline. After permeabilization, the cells were treated with antibody specific for Akt phosphorylated at threonine-308, followed by treatment with a fluorescent labeled secondary antibody.

Chain of IGF1R (P08069 959-1367 limits assumed, species assumed): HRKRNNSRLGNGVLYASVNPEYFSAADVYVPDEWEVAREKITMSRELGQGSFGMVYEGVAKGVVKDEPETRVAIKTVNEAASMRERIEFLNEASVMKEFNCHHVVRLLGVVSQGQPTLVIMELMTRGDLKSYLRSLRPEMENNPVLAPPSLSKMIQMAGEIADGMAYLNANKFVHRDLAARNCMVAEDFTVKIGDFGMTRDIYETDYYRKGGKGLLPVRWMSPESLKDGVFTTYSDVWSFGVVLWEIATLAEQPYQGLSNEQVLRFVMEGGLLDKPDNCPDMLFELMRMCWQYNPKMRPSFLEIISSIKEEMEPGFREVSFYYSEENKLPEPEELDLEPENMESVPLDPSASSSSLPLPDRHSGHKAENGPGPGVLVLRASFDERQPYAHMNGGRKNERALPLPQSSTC

With `C[C@H](NC(=O)[C@H](CCC(=O)O)NC(=O)CCCC[C@@H]1CCSS1)C(=O)O` [RLip-EA-OH, N-(R)-lipoyl-L-glutamyl-L- alanine] the AUC(0-inf) ([1]; plasma, 30 mg/kg IV infusion) was ~7000 ng·h/mL, the Cmax ([1]; plasma, 30 mg/kg IV infusion) was 20000 ng/mL and the clearance ([1]; plasma, 30 mg/kg IV infusion) was 75 mL/min/kg. For the same compound, the Vd ([1]; plasma, 30 mg/kg IV infusion, read-out: Vss) was 1.2 L/kg, the half-life ([1]; plasma, 30 mg/kg IV infusion, read-out: t½ (converted)) was 9 min and the half-life ([1]; serum, intravenous, rats, dose of 30 mg/kg, read-out: serum half-life) was ~9 min. For the same compound, the “effect on carbachol stimulated flux in cytosolic calcium” value (CHO M1-WT3 cells) was “diminished the flux in cytosolic calcium in a dose dependent manner”, the “Intervention due to Arrhythmia/Arrest (%)” value (myocardial I/R injury; Multi-dose (2x)) was 3\19 (16) % and the “Mortality (%)” value (myocardial I/R injury; Multi-dose (2x)) was 1\19 (5) %. The “Intervention due to Arrhythmia/Arrest (%)” value (myocardial I/R injury; Multi-dose (3x)) was 4\18 (22) %, the “Mortality (%)” value (myocardial I/R injury; Multi-dose (3x)) was 1\18 (5) % and the “Intervention due to Arrhythmia/Arrest (%)” value (myocardial I/R injury; Single dose) was 6\17 (35) %. For the same compound, the “Mortality (%)” value (myocardial I/R injury; Single dose) was 2\17 (12) %, the “IGF1R % activity above control (±SEM)” value (IGF1R; 100 μM) was 42 ± 1% and the “IGF1R % Increase in activity above vehicle control” value (IGF1R; 300 μM) was 33 ± 3%. The “fluorescence intensity (Akt phosphorylated at threonine-308)” value (Akt) was “much brighter”.
